The values that follow come from patent US20060014776A1, “Antitumoral compounds” (Instituto Biomar S.A., priority 2004, published 2006).

The test system of series [1] is L1210 (lymphocytic leukemia). Briefly: Disk diffusion soft agar colony formation assay, L1210. As to conditions: 7.5 μg/ml. In kind it is cell-based, murine. An excerpt: (§1) An in vitro cell-based assay was employed to identify solid tumor selectivity for compound IV. The differential cytotoxicity (Valeriote, F.; Grieshaber, C. K.; Media, J.; Pietraszkiewicz, H.; Hoffman, J.; Pan, M.; McLaughlin, S. J. Exp. Ther. Oncol. 2002, 2, 228-236) is expressed by observing a zone differential between any solid tumor cell (Colon38, ColonH116, Lung H125) and either leukemia cells (L1210 or CEM) or normal cells (CFU-GM). A sample is designated as “solid tumor selective” if (zone units of solid tumor—normal cells or leukemia cells) is greater than 250 units.
(§2) Colon 38 gives a good monodispersed cell suspension with mechanical disruption from a mouse tumor. […]
(§3) All of the human cancer cell lines are maintained in cell culture. […] The cells are passed through an 18-gauge needle twice and the monodispersed suspension counted. […]
(§4) A volume of 15 μl of each sample is dropped onto a 6.5 mm disk (Baxter filter disks). […] The plates are incubated for 7-10 days (depending upon the cell type) and examined by an inverted stereo-microscope (10×) for measurement of the zone of inhibition measured from the edge of the filter disk to the beginning of normal-sized colony formation. […] At some dilution, quantifiable cytotoxicity is invariably obtained.
(§5) • a Measured in zone units: 200 zone units=6 mm. […]

A further series relates to CEM (leukemia). Briefly: Disk diffusion soft agar colony formation assay, CEM. It counts as cell-based, human.
From the text: as §1, §2, §3, §4, §5
In general terms: A growth-free zone around the sample is the usual read-out of agar diffusion tests.

The conditions of series [2]: mouse, in vivo. The method, then:
In this dose calculation stage, the projected starting dose is based primarily on the solubility of the new compound. Potential doses are calculated on the basis of blood volume and total body water in mice.
The starting dose is selected on the basis of solubility of the compound in biologically compatible solvents, and the potency derived from in vitro studies.
To start, one normal SCID mouse is dosed intravenously with the solubilized/formulated compound via a one-hour infusion at a maximum dose of 20 mg/mL. The volume infused is 0.25 ml over the one-hour period. If the animal survives the dosing period, clinical signs are noted, and the animal is sacrificed at two hours post infusion and blood collected for subsequent analytical determinations. Two additional SCID mice are then similarly infused with the compound, one being sacrificed at the end of infusion and blood collected and analyzed for drug concentration. The third animal is housed for 2 weeks to ascertain survival, and then euthanized. During the two-week observation period, the animal will be monitored for clinical signs of distress and euthanized if moribund. The dosing data and pharmacologic information (estimate of half-life) from these three animals will guide the subsequent time-course study by approximating a tolerable dose and clearance of the agent. […]

Series [3] relates to CFU-GM-m (colony-forming unit-granulocyte macrophage; normal hematopoietic). The series can be described thus: Disk diffusion soft agar colony formation assay, CFU-GM-m. To be noted: 7.5 μg/ml. In kind it is cell-based, murine.
From the text: as §1, §2, §3, §4, §5

The nature of a further series: Pharmacokinetics. It counts as in vivo, male SCID mice bearing H116 tumors. To be noted: 18.5 mg/kg. As to the method: Compound IV was administered at 18.5 mg/kg to male SCID mice bearing H116 tumors.
By 24 h after drug administration, the concentration of compound IV is about 100 ng/ml.

In a further series the test system is H125 (lung). The series can be described thus: Disk diffusion soft agar colony formation assay, H125. It counts as cell-based, human.
From the text: as §1, §2, §3, §4, §5

Series [4] has as its system C38 (colon adenocarcinoma). Briefly: Disk diffusion soft agar colony formation assay, C38. It counts as cell-based, murine.
From the text: as §1, §2, §3, §4, §5

A further series relates to H116 human colon cells. Briefly: Clonogenic assay. It counts as cell-based. The method, then:
Concentration- and time-survival studies will be carried out against HCT-116 cells. HCT-116 cells are seeded at 200 to 20,000 cells in 60 mm dishes. Drug is added to the medium (RPMI+10% FBS) at concentrations of 1 mg/ml and 10-fold dilutions thereof. […] The dishes are incubated for 7 days, media removed and the colonies stained with methylene blue. Colonies containing 50 cells or more are counted. The results are normalized to an untreated control. Plating efficiency for the untreated cells is about 90%. Repeat experiments are carried out to define the cell survival range between 100% and […]. Subsequently, a concentration is chosen that yields a survival of 10^−2 at 24 hr and time-survival studies carried out from 0 to 48 hr. Both concentration- and time-survival curves are constructed so that AUC values can be calculated. A comparison of tumor to normal provides a theoretical basis for determining whether a compound might be active in therapeutic trials in vivo.

In series [5] the test system is CFU-GM-h (colony-forming unit-granulocyte macrophage; normal hematopoietic). The series can be described thus: Disk diffusion soft agar colony formation assay, CFU-GM-h. In kind it is cell-based, human. As to conditions: 7.5 μg/ml.
From the text: as §1, §2, §3, §4, §5

The subject of series [6] is HCT-116 cells in SCID mice. The series can be described thus: In vivo therapeutic trials. As to conditions: for time taken for tumor volume to reach 4-times the initial volume: control 7 days. As to the method: For the in vivo studies HCT-116 cells in SCID mice will be used. Individual mouse body weights for each experiment are within 5 g and all mice are over 17 g at the start of therapy. The mice are supplied food and water ad libidum. The animals are pooled, implanted subcutaneously with 10^7 cultured cells, and pooled again before distribution to treatment and control groups. Chemotherapy is started when the tumors reach a measurable size (about 150 mm^3). Initially, a 1 hour intravenous infusion will be given and the whole animal toxicity and therapeutic effect correlated with the pharmacology studies described above. Dosage levels are usually closely spaced (2-fold increments or 0.5 decrements). All drugs will be administered intravenously. Mice are killed when their tumors reach 1500 mm^3. Tumor weights are estimated from 2-dimensional caliper measurements done twice a week: Tumor Weight (mg)=(a×b^2)/2 • where a and b are the tumor length and width, respectively, in mm.
For this in vivo study with compound IV, 4 mice were in the control group, 4 in the 2 mg/ml and 1 in the 3 mg/ml groups.
The data were analyzed in terms of time taken for tumor volume to reach 4-times the initial volume. For control tumors this was 7 days, for the 2 mg/ml (0.5 mg/mouse; 25 mg/kg) dose, this was 10 days; and for the 3 mg/ml (0.75 mg/mouse; […]), this was 15 days. Thus, at the maximum tolerated dose there was a T/C of about 50%.

In a further series the test system is H116 (colon). Briefly: Disk diffusion soft agar colony formation assay, H116. In kind it is cell-based, human.
From the text: as §1, §2, §3, §4, §5

As for `COc1cc(-c2ccnc3c2C(=O)c2ncc(C)cc2C3=O)ccc1OCCCN` [Compound IV], the “zone of inhibition L1210” value in series [1] turned out to be 500 zone units. Moreover, the “zone of inhibition CEM” value is reported as 150 zone units in the series on CEM (leukemia) (1.9 μg/ml) and 550 zone units with CEM (leukemia) (7.5 μg/ml). Besides, the “Lethal Dose” value in series [2] (SCID) came out at 50 mg/kg. Further, the observation after injection entry in [2] (40 mg/kg) is reported as “survived but looked shaky right after injection”. Also, in [3], the “zone of inhibition CFU-GMm” value is 650 zone units. In addition, in “Pharmacokinetics” (over at least a 2-h period), the “concentration attained in the plasma” value is reported as “approximately 1 μg/ml”. The “concentration attained in the tumor” value in the series “Pharmacokinetics” (over at least a 2-h period) is “approximately 1 μg/ml”. Further, the concentration at 24 h in the series “Pharmacokinetics” (male, SCID, mouse, in vivo, 24 h after drug administration, read-out: concentration of compound IV) was roughly 100 ng/mL. For the same compound, the “zone of inhibition H125” value with H125 (lung) (1.9 μg/ml) is listed as 600 zone units; in the series with H125 (lung) (7.5 μg/ml) it was greater than 1000 zone units. In addition, the entries for the “zone of inhibition C38” value in series [4] (1.9 μg/ml) and in series [4] (7.5 μg/ml) were 100 zone units and 550 zone units, respectively. Besides, the “concentration at which a therapeutic effect would be obtained” value in the series with H116 human colon cells (7-day continuous exposure) is roughly 0.2 µg/mL; in the series with H116 human colon cells (maintained for a 24 h period), roughly 10 µg/mL. Also, the “zone of inhibition CFU-GMh” value in series [5] came out at 650 zone units. Besides, the “time taken for tumor volume to reach 4-times the initial volume” value in series [6] (2 mg/ml (0.5 mg/mouse; 25 mg/kg) dose) amounted to 10 days; in series [6] (3 mg/ml (0.75 mg/mouse; 38.5 mg/kg)), 15 days. In addition, the T/C entry in series [6] (at the maximum tolerated dose) is given as “about 50%”. Further, the “zone of inhibition H116” value in the series with H116 (colon) (1.9 μg/ml) amounted to 350 zone units; in the series on H116 (colon) (7.5 μg/ml), 800 zone units.
